The values that follow come from patent US11225465B2, “Albicidin derivatives, their use and synthesis” (TECHNISCHE UNIVERSITÄT BERLIN, priority 2017, dated 2022).

Structures are written as SMILES.

Test [1] concerns Pseudomonas aeruginosa ATCC 27853. The following applies: n.a. for the compounds; cited from earlier work.
Test [2] concerns Escherichia coli ATCC 25922. The following applies: n.a. for the compounds; cited from earlier work.
The test system of test [3] is Pseudomonas aeruginosa ATCC 27853. Nature of the test: MHK against further strains (Table 2). The test is classed as cell-based. Conditions: Nr. 6 Pseudomonas aeruginosa ATCC 27853; KBE/ml 5.60E+05. Here is the method:
(§1) The tests were performed using the micro dilution method.
(§2) The determination of MIC values was performed according to the ninth edition of the Approved Standard M07-A9 (CLSI. Methods for Dilution Antimicrobial Susceptibility Tests for Bacteria That Grow Aerobically; Approved Standard—Ninth Edition. CLSI document M07-A9. Wayne, Pa.: Clinical and Laboratory Standards Institute; 2012.)

Test [4] deals with Staphylococcus aureus ATCC 29213. Nature of the test: MHK against further strains (Table 2). In kind it is cell-based. The following applies: Nr. 8 Staphylococcus aureus ATCC 29213; KBE/ml 6.60E+05. As to the method: as §1, §2
The subject of test [5] is Escherichia coli ATCC 25922. Nature of the test: MHK against further strains (Table 2). In kind it is cell-based. Conditions: Nr. 1 Escherichia coli ATCC 25922; KBE/ml 2.80E+05. Here is the method:
as §1, §2

Test [6] concerns Staphylococcus aureus ATCC 29213. The following applies: n.a. for the compounds; cited from earlier work.

For the compound `O=C(O)c1cn(C2CC2)c2cc(N3CCNCC3)c(F)cc2c1=O` [CIP, reference compound], the “MHK range (unlabelled line below the ATCC strain)” value in test [1] was 0.25 to 1 mg/L; in test [2], 0.004 to 0.015 mg/L; in test [6], 0.12 to 0.5 mg/L. The MHK in test [3] was 0.5 mg/L; in test [4], 0.5 mg/L; in test [5], 0.015 mg/L.
